Data reported in patent publication US4185152A, “Thiazolidinyl alkoxy pyridines” (Warner-Lambert Company, priority 1971, dated 1980).
Read-outs that look alike come from different tables or passages of the source.

Experiments:
[1] = test system: mice exposed to X-ray or gamma ray radiation; test: antiradiation test, 30-day survival of irradiated mice; assay type: in vivo; conditions: Mus musculus, light or radiation study, ip, i.p., 950 R cobalt-60 gamma or 825 R X-ray, read-out: Survival (30 days)
From the text: The compounds of the invention are new chemical compounds that are useful as pharmacological agents, especially as antiradiation agents that are active in protecting against the effects of exposure to X-ray or gamma ray radiation.
In this table, the activity of each compound is expressed in terms of the percentage of animals that survived (30 days) the exposure to radiation at the given dose. The dose given is generally the lowest dose at which a high rate of survival was obtained. Administration was by the intraperitoneal route. Except where indicated otherwise, each compound was administered as the monohydrochloride salt to a test group consisting of 15 mice. The radiation dose was either 950 Roentgens supplied by a cobalt-60 gamma ray source or 825 Roentgens from an X-ray source.

[2] = approximate LD50 (acute toxicity, antiradiation activity table); conditions: mouse, in vivo, ip, mice, intraperitoneal
[3] = 0.25 h, pre-irradiation time 15 min., 15 mice, monohydrochloride
[4] = 0.5 h, pre-irradiation time 30 min., 15 mice, monohydrochloride

Brc1ccc(OCCCN2CCSC2)nc1.Cl [Br 3, 5-bromo-2-[3-(3-thiazolidinyl)propoxy]pyridine, monohydrochloride]
responders at 100 mg/kg [1, 3]: 33% | LD50 ([2]; monohydrochloride salt): ~250 mg/kg

Brc1ccc(OCCCCCN2CCSC2)nc1.Cl [Br 5, 5-Bromo-2-{[5-(3-thiazolidinyl)pentyl]oxy}-pyridine, monohydrochloride]
responders at 90 mg/kg ([1]; 0.5 h, dose 90 mg./kg., pre-irradiation time 30 min., six mice, monohydrochloride): 83% | responders at 180 mg/kg ([1]; 0.5 h, dose 180 mg./kg., pre-irradiation time 30 min., six mice, monohydrochloride): 100% | LD50 ([2]; monohydrochloride salt): ~240 mg/kg

Brc1ccc(OCCCCCCCCN2CCSC2)nc1.Cl [Br 8, 5-Bromo-2-{[8-(3-thiazolidinyl)octyl]oxy}-pyridine, monohydrochloride]
responders at 50 mg/kg ([1]; 0.5 h, dose 50 mg./kg., pre-irradiation time 30 min., 15 mice, monohydrochloride): 20% | LD50 ([2]; monohydrochloride salt): ~230 mg/kg

Cc1ccc(OCCCCCN2CCSC2)nc1 [CH3 5, 5-methyl-2-{[5-(3-thiazolidinyl)pentyl]-oxy}pyridine]
responders at 70 mg/kg ([1]; 0.5 h, dose 70 mg./kg., pre-irradiation time 30 min., 15 mice, dihydrochloride): 33% | LD50 ([2]; dihydrochloride salt): ~190 mg/kg

Cl.Cl.Clc1ccc(OCCCCCN2CCSC2)nc1 [Cl 5, 5-Chloro-2-{[5-(3-thiazolidinyl)pentyl]-oxy}pyridine, dihydrochloride]
responders at 80 mg/kg ([1]; 0.25 h, pre-irradiation time 15 min., 15 mice, dihydrochloride): 87% | responders at 80 mg/kg ([1]; 0.5 h, pre-irradiation time 30 min., 15 mice, dihydrochloride): 93% | LD50 ([2]; dihydrochloride salt): ~160 mg/kg

Cl.Ic1ccc(OCCCCN2CCSC2)nc1 [I 4, 5-iodo-2-[4-(3-thiazolidinyl)-butoxy]pyridine, monohydrochloride]
responders at 100 mg/kg [1, 3]: 20% | LD50 ([2]; monohydrochloride salt): > 300 mg/kg

Cl.Ic1ccc(OCCCCCN2CCSC2)nc1 [I 5, 5-Iodo-2-{[5-(3-thiazolidinyl)pentyl]oxy}-pyridine, monohydrochloride]
responders at 100 mg/kg [1, 4]: 93% | LD50 ([2]; monohydrochloride salt): ~230 mg/kg

Cl.Ic1ccc(OCCCCCCCN2CCSC2)nc1 [I 7, 5-Iodo-2-{[7-(3-thiazolidinyl)heptyl]oxy}-pyridine, monohydrochloride]
responders at 100 mg/kg [1, 4]: 47% | LD50 ([2]; monohydrochloride salt): ~200 mg/kg
